Measured values: US20040014215A1, “Synchronised arabidopsis cell suspensions and uses thereof” (priority 2000, published 2004)

Test system: CDK-a
Assay: Northern expression analysis after aphidicolin synchronisation of MM1 (maximum signal = 100%)
Format: cell-based, Arabidopsis thaliana
Procedure: was analysed following the expression level of known cell cycle regulated genes. Synchronisation was performed as described in Example 2A, with the exception that two 7-day old cultures of the weekly sub-cultured cell suspension (210 ml each) were combined. 40 ml of combined culture was transferred into 200 ml of fresh MSS-medium in each of 10 separate flasks. After incubation for 24 hrs under conditions as described in Example 1, in the presence of 4.16 μg/ml aphidicolin, cells from 5 pooled flasks were washed through a nylon net (mesh size 47 μm) and washed with 2 litre MSS medium and shaken vigorously to remove the aphidicolin. Cells were transferred into a 50 ml plastic tube, washed again with MSS medium and centrifuged at 2500 rpm for 1 min (1075 rcf). Cells were resuspended and combined with the cells from the other 5 flasks similarly washed in a total volume of 300 ml fresh MSS-medium. 30 ml of this cell suspension was then added to 200 ml fresh MSS-medium in each of 10 separate flasks.
1) 25 ml for Northern blot (transferred into 50 ml plastic tube, centrifuged at 2500 rpm for 1 min, the supernatant discarded, and the cell pellet shock-frozen in liquid nitrogen before storing in −80° C. freezer)
Samples were collected at the time point indicated (time of removal of aphidicolin equals time point 0 hrs) and were analysed for expression of the following genes by Northern blot:
CDK-a (also called Cdc2a/CDK2a: Accession no. ATCDC2AP)
For each probe the maximum hybridisation signal obtained was defined as 100%.

[1] = 0 hrs after aphidicolin removal
[2] = 2 hrs after aphidicolin removal
[3] = 4 hrs after aphidicolin removal
[4] = 6 hrs after aphidicolin removal
[5] = 8 hrs after aphidicolin removal
[6] = 10 hrs after aphidicolin removal
[7] = 12 hrs after aphidicolin removal
[8] = 14 hrs after aphidicolin removal
[9] = 16 hrs after aphidicolin removal
[10] = 18 hrs after aphidicolin removal
[11] = 20 hrs after aphidicolin removal
[12] = 22 hrs after aphidicolin removal
[13] = 24 hrs after aphidicolin removal
[14] = 26 hrs after aphidicolin removal
[15] = 28 hrs after aphidicolin removal
[16] = 30 hrs after aphidicolin removal

## C[C@@]1(CO)[C@H](O)CC[C@@]2(C)[C@H]1CC[C@H]1C[C@@H]3C[C@@]12CC[C@]3(O)CO [aphidicolin]
[1]
  CDK-a %: 17.71%
  CDK-a Band intensity: 321
[2]
  CDK-a %: 37.87%
  CDK-a Band intensity: 687
[3]
  CDK-a %: 45.09%
  CDK-a Band intensity: 818
[4]
  CDK-a %: 66.22%
  CDK-a Band intensity: 1202
[5]
  CDK-a %: 58.06%
  CDK-a Band intensity: 1054
[6]
  CDK-a %: 77.44%
  CDK-a Band intensity: 1406
[7]
  CDK-a %: 80.20%
  CDK-a Band intensity: 1456
[8]
  CDK-a %: 92.43%
  CDK-a Band intensity: 1678
[9]
  CDK-a %: 79.03%
  CDK-a Band intensity: 1435
[10]
  CDK-a %: 100.0%
  CDK-a Band intensity: 1816
[11]
  CDK-a %: 89.25%
  CDK-a Band intensity: 1620
[12]
  CDK-a %: 53.55%
  CDK-a Band intensity: 972
[13]
  CDK-a %: 34.25%
  CDK-a Band intensity: 621
[14]
  CDK-a %: 40.96%
  CDK-a Band intensity: 743
[15]
  CDK-a %: 36.32%
  CDK-a Band intensity: 659
[16]
  CDK-a %: 29.30%
  CDK-a Band intensity: 532
